Where two headings read alike, the source gives them in different places.
Legend:
[1] = target: GSK3α (GST-full length GSK3α) (Homo sapiens (Human), UniProt P49840); test: GSK3α TR-FRET kinase assay; type: biochemical
How it was run: (§1)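 1 nM GST-GSK3α/β + cpd, 30 min preinc; add 200 nM biotin-pS645 GS(631-650) peptide + ATP (α 4 μM / β 2 μM, or 1 mM); 100 min RT, 50 mM Tris pH 7.5, 20 mM MgCl2, 1% DMSO; EDTA stop; SA-d2/Tb-pSer641 Ab 60 min; 665/615 ratio → IC50.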

[2] = target: GSK3b (GST-full length GSK3b) (Homo sapiens (Human), UniProt P49841); test: GSK3b TR-FRET kinase assay; type: biochemical
How it was run: as §1

[3] = 1 nM GSK3α, 4 μM ATP, 30 minute preincubation, geometric mean, read-out: GSK3-A TR-FRET BIOCHEMICAL (TR-FRET), GMean, IC50
[4] = 1 nM GSK3b, 2 μM ATP, 30 minute preincubation, geometric mean, read-out: GSK3-B TR-FRET BIOCHEMICAL (TR-FRET), GMean, IC50
[5] = read-out: GSK3-A (TR-FRET 1 mM ATP), GMean, IC50, 1 mM ATP, geometric mean
[6] = read-out: GSK3-B (TR-FRET 1 mM ATP), GMean, IC50, 1 mM ATP, geometric mean
[7] = 1 nM GSK3α, 4 μM ATP, 30 minute preincubation, Table 16, read-out: GSK3-A TR-FRET BIOCHEMICAL (TR-FRET)
[8] = 1 nM GSK3b, 2 μM ATP, 30 minute preincubation, Table 16, read-out: GSK3-B TR-FRET BIOCHEMICAL (TR-FRET)

GSK3α (GST-full length GSK3α), sequence (P49840 whole entry): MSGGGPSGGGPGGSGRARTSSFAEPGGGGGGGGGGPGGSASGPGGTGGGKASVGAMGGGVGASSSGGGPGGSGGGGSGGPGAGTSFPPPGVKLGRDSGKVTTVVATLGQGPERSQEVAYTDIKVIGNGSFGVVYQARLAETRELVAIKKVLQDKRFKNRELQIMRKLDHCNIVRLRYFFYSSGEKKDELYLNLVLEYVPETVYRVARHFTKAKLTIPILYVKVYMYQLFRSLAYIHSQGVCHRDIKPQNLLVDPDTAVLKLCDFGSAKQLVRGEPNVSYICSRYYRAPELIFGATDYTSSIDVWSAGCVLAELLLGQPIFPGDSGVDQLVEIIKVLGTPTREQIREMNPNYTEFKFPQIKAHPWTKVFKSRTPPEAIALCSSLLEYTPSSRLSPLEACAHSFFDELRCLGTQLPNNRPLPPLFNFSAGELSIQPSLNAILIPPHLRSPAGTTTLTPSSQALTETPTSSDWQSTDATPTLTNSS
GSK3b (GST-full length GSK3b), sequence (P49841 whole entry): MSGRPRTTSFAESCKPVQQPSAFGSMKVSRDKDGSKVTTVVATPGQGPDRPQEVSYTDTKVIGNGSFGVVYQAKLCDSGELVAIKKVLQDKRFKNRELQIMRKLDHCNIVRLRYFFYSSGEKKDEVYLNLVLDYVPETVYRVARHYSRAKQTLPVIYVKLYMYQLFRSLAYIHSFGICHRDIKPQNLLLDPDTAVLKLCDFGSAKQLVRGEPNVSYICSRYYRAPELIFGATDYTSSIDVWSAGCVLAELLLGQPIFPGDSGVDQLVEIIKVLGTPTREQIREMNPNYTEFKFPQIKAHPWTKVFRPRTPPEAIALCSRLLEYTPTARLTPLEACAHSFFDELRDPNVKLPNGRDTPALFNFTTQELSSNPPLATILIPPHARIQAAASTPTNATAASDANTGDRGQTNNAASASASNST

| IC50 [1, 3] | IC50 [2, 4] | SMILES | further results |
| --- | --- | --- | --- |
| ≤ 0.1 µM | 0.1 to 1 µM | CCC1(c2cccc(-c3ccnc(C)c3)c2)C2=C(CC(C)(C)N(C)C2=O)Nc2n[nH]cc21 (stereo not drawn) [Compound 949004] |  |
| ≤ 0.1 µM | ≤ 0.1 µM | CCC1(c2cccc(-c3cn(C)nc3C)c2)C2=C(CC(C)(C)N(C)C2=O)Nc2n[nH]cc21 (stereo not drawn) [Compound 949005] | IC50 [1, 5]: ≤ 0.1 µM; IC50 [2, 6]: 1 to 5 µM |
| ≤ 0.1 µM | 0.1 to 1 µM | CC[C@]1(c2cccc(C(F)F)c2)C2=C(CC(C)(C)NC2=O)Nc2n[nH]cc21 [Compound 949006] | IC50 [1, 5]: 0.1 to 1 µM; IC50 [2, 6]: > 5 µM |
| 1 to 5 µM | > 5 µM | CC[C@@]1(c2cccc(C(F)F)c2)C2=C(CC(C)(C)NC2=O)Nc2n[nH]cc21 [Compound 949007] |  |
| 1 to 5 µM | > 5 µM | CCC1(c2cccc(-c3cn(C)nc3C)c2)C2=C(CC(C)(C)N(C)C2=O)Nc2n[nH]cc21 (stereo not drawn) [Compound 949008] |  |
| > 5 µM | > 5 µM | CCC1(c2cccc(-c3ccnc(C)c3)c2)C2=C(CC(C)(C)N(C)C2=O)Nc2n[nH]cc21 (stereo not drawn) [Compound 949009] |  |
| ≤ 0.1 µM | ≤ 0.1 µM | CCC1(c2cccc(-c3cncn3C)c2)C2=C(CC(C)(C)NC2=O)Nc2n[nH]c(C(F)(F)F)c21 (stereo not drawn) [Compound 949010] | IC50 [1, 5]: ≤ 0.1 µM; IC50 [2, 6]: ≤ 0.1 µM |
| ≤ 0.1 µM | 0.1 to 1 µM | CCC1(c2cccc(-c3cnn(C)c3)c2)C2=C(CC(C)(C)NC2=O)Nc2n[nH]c(F)c21 (stereo not drawn) [Compound 949011] |  |
| ≤ 0.1 µM | 0.1 to 1 µM | CC[C@@]1(c2cccc(-c3ccnc(C)c3)c2)C2=C(CC(C)(C)NC2=O)Nc2n[nH]c(F)c21 [Compound 949012] |  |
| ≤ 0.1 µM | ≤ 0.1 µM | CC[C@@]1(c2cccc(N3CCOCC3)c2)C2=C(CC(C)(C)NC2=O)Nc2n[nH]c(C(F)(F)F)c21 [Compound 949013] |  |
| ≤ 0.1 µM | 0.1 to 1 µM | CCC1(c2cccc(C(F)(F)F)c2)C2=C(CCN(c3cccc(C)c3)C2=O)Nc2n[nH]cc21 (stereo not drawn) [Compound 949040] |  |
| 1 to 5 µM | > 5 µM | CC[C@]1(c2cccc(C(F)(F)F)c2)C2=C(CCN(c3cccc(C)c3)C2=O)Nc2n[nH]cc21 [Compound 949041] |  |

Second part, the compound before the results:

| SMILES | IC50 [1, 3] | IC50 [2, 4] | further results |
| --- | --- | --- | --- |
| CCC1(c2cccc(-c3cnn(C)c3)c2)C2=C(CC(C)(C)NC2=O)Nc2n[nH]c(Cl)c21 (stereo not drawn) [Compound 948767] | ≤ 0.1 µM | ≤ 0.1 µM |  |
| CCC1(c2cccc(-c3cn(C)nc3C)c2)C2=C(CC(C)(C)NC2=O)Nc2n[nH]c(Cl)c21 (stereo not drawn) [Compound 948768] | ≤ 0.1 µM | ≤ 0.1 µM |  |
| CC[C@]1(c2cccc(-c3ccnc4c3CCC4)c2)C2=C(CC(C)(C)NC2=O)Nc2n[nH]c(C(F)(F)F)c21 [Compound 948769] | 0.1 to 1 µM | 0.1 to 1 µM |  |
| CC[C@]1(c2cccc(-c3ccncc3F)c2)C2=C(CC(C)(C)NC2=O)Nc2[nH]nc(C(F)(F)F)c21 [Compound 948770] | 0.1 to 1 µM | 0.1 to 1 µM |  |
| CC[C@]1(c2cccc(S(=O)(=O)C3CC3)c2)C2=C(CC(C)(C)NC2=O)Nc2[nH]nc(C(F)(F)F)c21 [Compound 948771] | ≤ 0.1 µM | ≤ 0.1 µM | IC50 [1, 5]: ≤ 0.1 µM; IC50 [2, 6]: 0.1 to 1 µM |
| CCC1(c2cccc(-c3ccnc(C)c3)c2)C2=C(CC(C)(C)NC2=O)Nc2n[nH]c(C(F)(F)F)c21 (stereo not drawn) [Compound 948773] | 1 to 5 µM | > 5 µM |  |
| CC[C@@]1(c2cccc(-c3ccnc(C)c3)c2)C2=C(CC(C)(C)NC2=O)Nc2n[nH]c(C(F)(F)F)c21 [Compound 948774] | ≤ 0.1 µM | ≤ 0.1 µM |  |
| CC[C@@]1(c2cccc(-c3cnn4c3CCCC4)c2)C2=C(CC(C)(C)NC2=O)Nc2[nH]nc(C(F)(F)F)c21 [Compound 948775] | ≤ 0.1 µM | ≤ 0.1 µM | IC50 ([1]; GSK3-A (TR-FRET 1 mM ATP), GMean, IC50, 1 mM ATP, geometric mean): ≤ 0.1 µM; IC50 ([2]; GSK3-B (TR-FRET 1 mM ATP), GMean, IC50, 1 mM ATP, geometric mean): 0.1 to 1 µM |
| CCC1(c2cccc(S(=O)(=O)C3CC3)c2)C2=C(CC(C)(C)NC2=O)Nc2n[nH]c(C(F)(F)F)c21 (stereo not drawn) [Compound 948776] | 0.1 to 1 µM | 0.1 to 1 µM |  |
| CC[C@@]1(c2cccc(-c3ccncc3F)c2)C2=C(CC(C)(C)NC2=O)Nc2[nH]nc(C(F)(F)F)c21 [Compound 948777] | ≤ 0.1 µM | ≤ 0.1 µM |  |
| CCC1(c2cccc(C3CN(C(C)=O)C3)c2)C2=C(CC(C)(C)CC2=O)Nc2n[nH]cc21 (stereo not drawn) [Compound 948779] |  |  | IC50 [1, 7]: 1 to 5 µM; IC50 [2, 8]: > 5 µM |
| CCC1(c2cccc(OCC(F)F)c2)C2=C(CC(C)(C)CC2=O)Nc2n[nH]cc21 (stereo not drawn) [Compound 948793] |  |  | IC50 [1, 7]: ≤ 0.1 µM; IC50 [1, 5]: 0.1 to 1 µM; IC50 [2, 8]: ≤ 0.1 µM; IC50 [2, 6]: > 5 µM |
| CC[C@@]1(c2cccc(-c3ccnc4c(F)cccc34)c2)C2=C(CC(C)(C)NC2=O)Nc2n[nH]cc21 [Compound 948813] | 1 to 5 µM | > 5 µM |  |
| CC[C@@]1(c2cccc(-c3cnn(C)c3C#N)c2)C2=C(CC(C)(C)NC2=O)Nc2n[nH]cc21 [Compound 948814] | > 5 µM | > 5 µM |  |
| CC[C@]1(c2cccc(-c3cnn(C)c3C(F)(F)F)c2)C2=C(CC(C)(C)NC2=O)Nc2n[nH]cc21 [Compound 948815] | ≤ 0.1 µM | 0.1 to 1 µM | IC50 [1, 5]: 0.1 to 1 µM; IC50 [2, 6]: > 5 µM |
| CC[C@@]1(c2cccc(-c3cnn(C(F)F)c3)c2)C2=C(CC(C)(C)NC2=O)Nc2n[nH]cc21 [Compound 948816] | > 5 µM | > 5 µM |  |
| CC[C@@]1(c2cccc(-c3ccnc4c3cnn4C)c2)C2=C(CC(C)(C)NC2=O)Nc2n[nH]cc21 [Compound 948817] | > 5 µM | > 5 µM |  |
| CC[C@@]1(c2cccc(-c3c(C)c(C)nn3C)c2)C2=C(CC(C)(C)NC2=O)Nc2n[nH]cc21 [Compound 948818] | > 5 µM | > 5 µM |  |
| CC[C@@]1(c2cccc(-c3ccnc4cnccc34)c2)C2=C(CC(C)(C)NC2=O)Nc2n[nH]cc21 [Compound 948819] | 1 to 5 µM | > 5 µM |  |
| CCC1(c2cccc(-c3cnn(C)c3C(F)(F)F)c2)C2=C(CC(C)(C)NC2=O)Nc2n[nH]cc21 (stereo not drawn) [Compound 948826] | 1 to 5 µM | > 5 µM |  |
| CCC1(c2cccc(-c3cnn(C)c3C#N)c2)C2=C(CC(C)(C)NC2=O)Nc2n[nH]cc21 (stereo not drawn) [Compound 948827] | ≤ 0.1 µM | 0.1 to 1 µM |  |
| CC[C@@]1(c2cccc(-c3c(C)cncc3C)c2)C2=C(CC(C)(C)NC2=O)Nc2n[nH]cc21 [Compound 948829] | > 5 µM | > 5 µM |  |
| CCC1(c2cccc(-c3ccnc(C)c3)c2)C2=C(CC(C)(C)NC2=O)Nc2n[nH]c(Cl)c21 (stereo not drawn) [Compound 948998] | ≤ 0.1 µM | ≤ 0.1 µM | IC50 [1, 5]: 0.1 to 1 µM; IC50 [2, 6]: 1 to 5 µM |
| CCC1(c2cccc(-c3ccncc3F)c2)C2=C(CC(C)(C)NC2=O)Nc2n[nH]c(F)c21 (stereo not drawn) [Compound 948999] | ≤ 0.1 µM | 0.1 to 1 µM |  |
| CC[C@]1(c2cccc(N3CCOCC3)c2)C2=C(CC(C)(C)NC2=O)Nc2n[nH]c(C(F)(F)F)c21 [Compound 949000] | 0.1 to 1 µM | 0.1 to 1 µM |  |
| CCC1(c2cccc(-c3ccnc(C)c3)c2)C2=C(CC(C)(C)NC2=O)Nc2n[nH]c(F)c21 (stereo not drawn) [Compound 949001] | 0.1 to 1 µM | 0.1 to 1 µM |  |
| CC[C@]1(c2cccc(-c3cnn(C)c3)c2)C2=C(CC(C)(C)NC2=O)Nc2n[nH]c(F)c21 [Compound 949002] | 1 to 5 µM | > 5 µM |  |
| CCC1(c2cccc(-c3cncn3C)c2)C2=C(CC(C)(C)NC2=O)Nc2n[nH]c(C(F)(F)F)c21 (stereo not drawn) [Compound 949003] | 0.1 to 1 µM | 0.1 to 1 µM |  |
